Assay results: patent publication US8252832B2, “Kinesin inhibitors as cancer therapeutics” (Novartis AG, priority 2007, dated 2012)
Like-named read-outs stand apart in the source and are kept apart here.

How the values were obtained:
Experiment in all cases: CellTiter-Glo, hematologic malignancy panel
Format in all cases: cell-based
AML-193 = system: AML-193
From the text: (§1) Identification of tumor types that are the most sensitive to the KSP inhibitors of the present invention can be accomplished using an unbiased approach that uses several cell-based assays. The assays chosen were as follows: • CellTiter-Glo®. This is an assay designed to measure ATP concentration in a cell culture, and can be correlated to cell number. Briefly CellTiter-Glo® (Promega Corporation) is a homogeneous method using the single CellTiter-Glo® reagent to detect ATP wherein ATP in the assay drives the activity of a thermostable luciferase to create a luminescent signal which can then be measured and correlated with the number of viable cells. Briefly, for adherent cells, 1,000 to 5,000 cells/well were plated in 96-well plates (100 μl/well) and let to adhere for 24 hours before being treated with drug. For non-adherent cells, 1,000 to 10,000 cells/well were plated in 96-well plates (100 μl/well) and immediately treated with drug. Drug dilutions were prepared in DMSO at 1000 times the final concentration. These dilutions were then diluted 1/100 in growth media before being added to the cells (11 μl/well) to achieve the desired final concentration. After 48 h in a 37° C. tissue culture incubator, the plates were processed for the CellTiter-Glo®assay according to the manufacturer's instructions. Protocol for a 72 hour cell proliferation assay: The 72 hour assay was performed the same way as the 48 hour assay except for the following modifications: For adherent cells, 500 to 5,000 cells/well were plated in 96-well plates (90 μl/well cell growth media) and left to adhere for 24 hours before being treated with drug. For non-adherent cells, 1,000 to 10,000 cells/well were plated in 96-well plates (90 μl/well cell growth media) and immediately treated with drug. Data values presented represent the concentration of test compound required for a 50% reduction in growth. • LDH release. The Cytotoxicity Detection KitPLUS (LDH) assay (Roche Diagnostics, Manheim, Germany) measures the amount of LDH released in the media by dying cells; LDH catalyzes the conversion of lactate into pyruvate. The enzymatic reaction is coupled to a chemical reaction that uses a tetrazolium salt to form a formazan that is red and can be detected by its absorbance at 490 nm. This assay measures the amount of cell death after drug treatment. Cells were plated at 10,000 cells/well in 96-well plates (100 μl/well). Adherent cells were let to adhere for 24 hours before being treated with drug, whereas non-adherent cells were immediately treated with drug. Drug dilutions were prepared in DMSO at 1000 times the final concentration. These dilutions were then diluted 1/100 in growth media before being added to the cells (11 μl/well) to achieve the desired final concentration. After 48 h in a 37° C. tissue culture incubator, the plates were processed for the Cytotoxicity Detection KitPLUS (LDH) assay according to the manufacturer's instructions. The media only values were subtracted from all the data points before analysis. Data values presented correspond to the compound concentration wherein LDH output is at half maximal level. • Caspase-Glo® 3/7. The Caspase-Glo® 3/7 Assay (Promega Corporation) is a homogeneous luminescent assay that measures caspase-3/7 activities. The assay provides a proluminescent caspase-3/7 DEVD-aminoluciferin substrate and a thermostable luciferase in a reagent optimized for caspase-3/7 activity, luciferase activity and cell lysis. Adding the single Caspase-Glo® 3/7 Reagent results in cell lysis, followed by caspase cleavage of the substrate. This liberates free aminoluciferin, which is consumed by the luciferase, generating a luminescent signal. The signal is proportional to caspase-3/7 activity. Data values presented correspond to the compound concentration wherein caspase 3/7 activity is at half maximal level. […]

CCRF-CEM = details: ALL; for GI50: Homo sapiens
From the text: as §1

H929-Luc = details: MM
From the text: as §1

H929 = details: for GI50: Homo sapiens, NCI-H929, MM
From the text: as §1

HL60-Luc = details: AML; for GI50: HL-60-Luc
From the text: as §1

KMS26 = details: for GI50: KMS-26, MM
From the text: as §1

Karpas-299-Luc = details: NHL
From the text: as §1

Kasumi-1 = details: AML; for GI50: Homo sapiens
From the text: as §1

L363 = details: for GI50: Homo sapiens, L-363, MM
From the text: as §1

L428 = details: for GI50: Homo sapiens, L-428, HL
From the text: as §1

MOLT-4 = details: ALL; for GI50: Homo sapiens
From the text: as §1

RPMI-8226 = details: MM; for GI50: Homo sapiens
From the text: as §1

SEM-Luc = details: ALL
From the text: as §1

SET-2 = details: AML; for GI50: Homo sapiens
From the text: as §1

SR = details: NHL; for GI50: Homo sapiens
From the text: as §1

U937 = details: for GI50: Homo sapiens, U-937, NHL
From the text: as §1

[1] = GI50 in nM, read-out: Log(GI50) (converted)

CC(C)(C)[C@H](c1nc(-c2cc(F)ccc2F)cn1Cc1ccccc1)N(CC[C@H](N)CF)C(=O)CO [Compound IIa]
Differential vs mean Log(GI50) (AML-193): 0.489
GI50 (AML-193; [1]): 0.11 nM
GI50 (AML-193; read-out: GI50): 0.11 nM
Differential vs mean Log(GI50) (CCRF-CEM): 0.315
GI50 (CCRF-CEM; [1]): 0.164 nM
GI50 (CCRF-CEM; read-out: GI50): 0.16 nM
Differential vs mean Log(GI50) (H929-Luc): −0.697
GI50 (H929-Luc; [1]): 1.69 nM
GI50 (H929-Luc; read-out: GI50): 1.69 nM
GI50 (H929; [1]): 0.335 nM
GI50 (H929; read-out: GI50): 0.34 nM
Differential vs mean Log(GI50) (H929; MM): 0.005
Differential vs mean Log(GI50) (HL60-Luc): −0.173
GI50 (HL60-Luc; [1]): 0.505 nM
GI50 (HL60-Luc; read-out: GI50): 0.51 nM
GI50 (KMS26; [1]): 0.24 nM
GI50 (KMS26; read-out: GI50): 0.24 nM
Differential vs mean Log(GI50) (KMS26; MM): 0.150
Differential vs mean Log(GI50) (Karpas-299-Luc): −1.775
GI50 (Karpas-299-Luc; [1]): 20.2 nM
GI50 (Karpas-299-Luc; read-out: GI50): 20.2 nM
Differential vs mean Log(GI50) (Kasumi-1): −0.113
GI50 (Kasumi-1; [1]): 0.44 nM
GI50 (Kasumi-1; read-out: GI50): 0.44 nM
GI50 (L363; [1]): 0.13 nM
GI50 (L363; read-out: GI50): 0.13 nM
Differential vs mean Log(GI50) (L363; MM): 0.416
Differential vs mean Log(GI50) (L428; HL): −1.771
GI50 (L428; [1]): 20 nM
GI50 (L428; read-out: GI50): 20 nM
Differential vs mean Log(GI50) (MOLT-4): 0.010
GI50 (MOLT-4; [1]): 0.331 nM
GI50 (MOLT-4; read-out: GI50): 0.33 nM
GI50 (RPMI-8226; [1]): 0.262 nM
GI50 (RPMI-8226; read-out: GI50): 0.26 nM
Differential vs mean Log(GI50) (RPMI-8226): 0.112
Differential vs mean Log(GI50) (SEM-Luc): 0.354
GI50 (SEM-Luc; [1]): 0.15 nM
GI50 (SEM-Luc; read-out: GI50): 0.15 nM
Differential vs mean Log(GI50) (SET-2): −0.001
GI50 (SET-2; [1]): 0.34 nM
GI50 (SET-2; read-out: GI50): 0.34 nM
GI50 (SR; [1]): 0.11 nM
GI50 (SR; read-out: GI50): 0.11 nM
Differential vs mean Log(GI50) (SR): 0.487
GI50 (U937; [1]): 0.2 nM
GI50 (U937; read-out: GI50): 0.2 nM
Differential vs mean Log(GI50) (U937; NHL): 0.229
